One assay has as its target T1, HRas^(1-166) (Homo sapiens, UniProt P01112).
T1 construct: 6×His-tagged HRas WT 1-166; made in house
Description: In vitro pulldown binding assay with 6×His-tagged HRas 1-166 and fluorescein-tagged SOS peptides. The method, then:
Recombinantly purified 6×His-tagged HRas WT 1-166 was incubated with Ni-NTA sepharose beads, generating recombinant Ras on solid support. FITC labeled HBS peptides were incubated in the presence of recombinant HRas-6×His/Ni-NTA Sepharose complex at 4° C. for 1 hour. Beads complexes were pelleted and washed 5× with protein buffer (20 mM Tris-HCl pH 7.6, 50 mM NaCl, 4 mM EDTA, 10 mM MgCl2), resuspended in reducing buffer (126 mM Tris-HCL pH 6.8, 20% glycerol, 4% SDS, 0.02% bromophenol blue, 2.5% β-mercaptoethanol), boiled for 10 minutes at 95° C., and subjected to SDS-PAGE with an acrylamide percentage of 20% to allow for sufficient resolution of the HBS helices. SDS-PAGE gels were imaged using an ImageQuant™ LAS 4000 biomolecular imager (GE Healthcare, Piscataway, N.J., USA). Quantification of fluorescence by FITC-HBS helices in gel was determined by manufacturer provided ImageQuant™ TL software. Raw values were normalized to total input and plotted on a semilog graph with GraphPad Prism version 6.00 for OSX (GraphPad Software, La Jolla Calif. USA, www.graphpad.com).
The binding affinity of the designed compounds for Ras was determined using in vitro pulldown assays with recombinantly purified 6×His-tagged HRas^(1-166) and fluorescein-tagged SOS peptides (FIGS. 8 and 9, and Table 2). […] Although, the exact binding mode of the peptides and the conformational state of Ras is not known, the enhanced affinity of the α3β-HBSSOS compound likely reflects a combination of both the higher conformational stability of the HBS α3β construct and the exact Ras conformation it can access. […] Because, the SOS analogs can bind nucleotide-free and bound Ras, we hypothesize that the compounds are accessing an intermediate switch conformation.

Assay [1] has as its target Sos-mediated Ras nucleotide exchange (Homo sapiens, UniProt P01112). Description: In vitro nucleotide exchange (mant-GDP, SOS-Cat). Type of assay: biochemical. As to the method: Exchange assays were performed by incubating 1 μM of recombinant wild type Ras protein with 1 μM mant-GDP in exchange buffer (20 mM Tris-HCl pH 7.6, 50 mM NaCl, 4 mM EDTA) for 5 minutes on ice. The mixture was then supplemented with 10 mM MgCl2 and incubated for an additional 6 hours at 4° C. Exchange reaction was initiated by either the addition of 100 μM-unlabeled GDP, (negative control) or the addition of 100 μM-unlabeled GDP in the presence of 1 μM SOS-Cat. The levels of fluorescence anisotropy were measured on a Perkin Elmer fluorescence spectrometer (model LS50B) with an excitation wavelength of 370 nm and emission detection at 430 nm. To test the inhibitory properties of the HBSSOS helices, indicated peptides were added to the mant-loaded Ras at a concentration of 1 uM and allowed to stand for 10 minutes at 4° C. before the addition of SosCat. Dissociation rates (Koff values) were determined by fitting raw data to a first-order exponential decay function using GraphPad Prism version 6.00 for OSX (GraphPad Software, La Jolla Calif. USA, www.graphpad.com). Data was normalized to t=0, converted to a percentage, and plotted as a curve for ease of visualization.
We evaluated inhibition of nucleotide exchange under stringent conditions consisting of 1 μM each of Ras, SOS, and the inhibitor.

A further assay concerns the target T2, oncogenic KRas (Homo sapiens, UniProt P01116, G12C).
T2 construct: levels of GTP-loaded endogenous HRas, KRas, and NRas proteins; endogenous in cells; host or cells: MIA PaCa-2
Description: RBD-pulldown of GTP-loaded Ras in MIA PaCa-2 cells. In kind it is cell-based. Conditions: 48 hours. As to the method:
(§1) To determine the effect of α3β-HBSSOS on Sos-mediated Ras activation in cells we treated MIA PaCa-2 cells, which harbor oncogenic KRas, with α3β-HBSSOS, control peptides, or vehicle control for 48 hours. Utilizing the RBD-pulldown assay we determined the levels of GTP-loaded endogenous HRas, KRas, and NRas proteins. As expected, MIA PaCa-2 cells display GTP-loading of all isoforms at steady state when treated with the vehicle control (FIGS. 11A-B).

The target of another assay is T3, wild type HRas (Homo sapiens, UniProt P01112).
T3 construct: levels of GTP-loaded endogenous HRas, KRas, and NRas proteins; endogenous in cells; host or cells: MIA PaCa-2
Description: RBD-pulldown of GTP-loaded Ras in MIA PaCa-2 cells. Type of assay: cell-based. To be noted: 48 hours. As to the method:
as §1

The next assay deals with T4, wild type NRas (Homo sapiens, UniProt P01111).
T4 construct: levels of GTP-loaded endogenous HRas, KRas, and NRas proteins; endogenous in cells; host or cells: MIA PaCa-2
T4 sequence (P01111 whole entry): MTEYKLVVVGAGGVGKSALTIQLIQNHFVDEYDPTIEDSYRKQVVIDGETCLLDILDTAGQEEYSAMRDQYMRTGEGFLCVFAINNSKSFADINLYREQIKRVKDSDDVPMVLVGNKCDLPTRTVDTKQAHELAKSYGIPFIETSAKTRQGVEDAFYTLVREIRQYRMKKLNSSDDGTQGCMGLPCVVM
The experiment in a line: RBD-pulldown of GTP-loaded Ras in MIA PaCa-2 cells. In kind it is cell-based. Conditions: 48 hours. As to the method: as §1

For assay [2], the system named is panel of six human cancer cell lines. Description: Growth and viability of a panel of six human cancer cell lines. Type of assay: cell-based. Conditions: for effect on cell growth relative to vehicle control: single administration of 5 μM, six days. As to the method: (§2) Various indicated cell lines were plated at low density (˜500-1000 cells per well) in a 96-well format. 12 hours post-plating, media was supplemented with either PBS vehicle, or indicated dosage, and cells were allowed to grow for ˜5.5 days. Cells were subsequently fixed for 1 hour with a 3.7% formaldehyde solution in PBS, and stained with Syto-60 nucleic acid stain (MANUFACTURER) in solution (1:2000 Syto-60, 0.5% Triton X-100, 100 ug/mL RNAse-A, in PBS). Syto-60 stained cells were subjected to quantitative imaging in 96-well plates (Odyssey® Imager, LI-COR Biosciences; excitation: 652; emission: 678) with a 3.0 mm z-axis offset to the scan-head to get the cellular nuclei in the optimal focal plane for quantification. Absolute fluorescence intensity was normalized to the vehicle control for each respective cell line at each dose. Normalized values were visualized on a semilog plot, and data was subjected to non-linear sigmoidal dose-response to determine half-maximal effective concentration (EC50) using GraphPad Prism version 6.00 for OSX, (GraphPad Software, La Jolla Calif. USA, www.graphpad.com).
(§3) To investigate the functional consequence of inhibiting Ras activation in the context of oncogenic mutations, we examined the effect of α3β-HBSSOS on the growth and viability of cancer cells of different origins. We selected a panel of six human cancer cell lines derived from the pancreas, colon, and bladder, which harbor a variety of oncogenic proteins including mutant KRas (Table 3).
(§4) α3β-HBSSOS reduces cell viability in a dose dependent manner, with the effect spanning over four orders of magnitude. We divided the cell lines into two groups with respect to EC50 values (Table 3). […] We hypothesized that differential cellular uptake may account for the different potency of the peptides between the oncogenic and wild type RTK-Ras cell lines.

Another assay has as its system BxPc3. Type of assay: cell-based, human. To be noted: BxPc3, Ras WT; read-out: EC50 for cell viability. As to the method:
as §2, §3, §4

In a further assay the test system is CaCo2. In kind it is cell-based, human. Conditions: CaCo2, Ras WT; read-out: EC50 for cell viability. As to the method:
as §2, §3, §4

The subject of the next assay is HCT116. Type of assay: cell-based, human. Conditions: read-out: EC50 for cell viability. The method, then: as §2, §3, §4
A further assay relates to J82. Type of assay: cell-based, human. Conditions: read-out: EC50 for cell viability. The method, then:
as §2, §3, §4

A further assay concerns Mia PaCa2. Type of assay: cell-based, human. To be noted: read-out: EC50 for cell viability. The method, then: as §2, §3, §4
The next assay concerns SW780. Type of assay: cell-based, human. Conditions: SW780, Ras WT; read-out: EC50 for cell viability. The method, then: as §2, §3, §4
Assay [3] relates to mutant Ras and wild type Ras cancer cell lines. The experiment in a line: Analysis of DNA content by FACS (cell cycle). In kind it is cell-based. As to the method: DNA content was determined by flow cytometric analysis using TO-PRO®-3 Iodide (Life Technologies Corp., Grand Island, N.Y.) to stain nucleic acids. Cell lines were plated at ˜40-50% confluency in multi-well format and 12-hours post plating were treated with either HBS helices or vehicle control at the indicated dose. After the indicated incubation period the culture media was collected, and the cells were trypsinized, pooled with the media, pelleted in a clinical centrifuge, resuspended in a small volume of PBS, and added dropwise to 100% ice-cold ethanol while vortexing at low speed, resulting in a final concentration of ˜70% ethanol. Cells were fixed in this solution on ice for 24 hours. Subsequently cells were pelleted at 4° C., washed once with a solution of 1% BSA in PBS, and resuspended in a solution of 1% BSA, 0.5% Triton X-100, 1:5000 TO-PRO®-3 Iodide (Life Technologies Corp., Grand Island, N.Y.). Results and Discussion of Examples 1-9
We next sought to gain mechanistic insight into the attenuated growth and viability of cancer cells that is observed upon inhibition of Sos-mediated Ras activation with α3β-HBSSOS. Because of the link between Ras signaling and cell cycle progression, we reasoned that DNA content analysis would elucidate Ras-mediated effects on cell growth. […]
For orientation: A flow cytometer gives signals particle by particle.

Another assay has as its system mutant Ras cells. The experiment in a line: Phosphorylated H2AX and cleaved caspace-3 immunofluorescence. To be noted: only mutant Ras cells. Type of assay: cell-based. From the text:
We next sought to gain mechanistic insight into the attenuated growth and viability of cancer cells that is observed upon inhibition of Sos-mediated Ras activation with α3β-HBSSOS. Because of the link between Ras signaling and cell cycle progression, we reasoned that DNA content analysis would elucidate Ras-mediated effects on cell growth. […] This cellular response to pharmacological inhibition of Ras activation by α3β-HBSSOS phenocopies the effects of the post-transcriptional silencing of wild type Ras and Sos in oncogenic Ras-driven cancer. These corroborant genetic and pharmacological cell viability defects support the therapeutic strategy of targeting wild type Ras activation.

“Also recorded” adds a separate entry of the source. Where two headings read alike, the source gives them in different places.

T2 sequence (P01116 whole entry G12C): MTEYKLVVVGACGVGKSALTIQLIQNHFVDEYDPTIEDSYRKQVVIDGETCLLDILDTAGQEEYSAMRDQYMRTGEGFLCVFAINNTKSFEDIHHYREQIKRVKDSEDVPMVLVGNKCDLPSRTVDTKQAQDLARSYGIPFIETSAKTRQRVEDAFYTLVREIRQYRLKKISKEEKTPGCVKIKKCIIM

In the case of `CC[C@H](C)[C@@H](CC(=O)N[C@@H](Cc1ccc(O)cc1)C(=O)N[C@@H](CCCNC(=N)N)C(=O)N[C@@H](CC(C)C)C(=O)N[C@@H](CCC(=O)O)CC(=O)N[C@@H](CC(C)C)C(=O)N[C@@H](CC(C)C)C(=O)N[C@@H](CCCCN)C(=O)N[C@@H](C)CC(=O)N[C@@H](CCC(=O)O)C(=O)N[C@@H](CCC(=O)O)C(=O)N[C@@H](C)C(=O)N[C@@H](CC(N)=O)C(N)=O)NC(=O)CN1CC=CCCCC(=O)N[C@@H](Cc2ccccc2)C(=O)N[C@@H](CCC(=O)O)C1=O` [α3β-HBSSOS, ZFEG*iYRLeLLKaEEAN-NH2], the “fold greater affinity than the all-α analog α-HBSSOS” value at HRas^(1-166) was 50 fold. Besides, the Kd (commonly the equilibrium constant for the complex coming apart) on HRas^(1-166) (fluorescein-tagged peptides, 4° C., 1 hour) worked out at 220 ± 56 nM. Also, the “inhibition of Sos-mediated Ras nucleotide exchange” value in assay [1] (1 μM each of Ras, SOS, and the inhibitor) is on record as “potent inhibitory effect”. For the same compound, the “concentration giving inhibitory effect comparable to previously reported α-HBSSOS” value in assay [1] (relative to α-HBSSOS concentration) is recorded as “one-twentieth”. Besides, on oncogenic KRas, the “GTP-loading of oncogenic KRas” value is “diminished; also recorded: significantly reduced”. The “GTP-loading of wild type HRas” value on wild type HRas is listed as “completely abrogated”. Besides, the “GTP-loading of wild type NRas” value on wild type NRas is on record as “completely abrogated”. Besides, the “effect on viability of the wild-type Ras group” value in [2] (CaCo2, SW780, and BxPc3) was “limited effects on viability”. Also, the “effect on cell growth relative to vehicle control” value in [2] is “inhibited the growth of all cell lines to varying degrees”. For the same compound, the EC50 – broadly, the midpoint of the concentration-response curve – with BxPc3 was 1180 nM; with CaCo2, 2670 nM; with HCT116 (HCT116, Kras G13C) it was 243 nM; in the assay on HCT116 (HCT-116), 243 ± 44 nM; in the assay on J82 (J82, Ras WT, FGFR3 CA), 65.2 nM; in the assay on J82 (J82) it was 65.2 ± 43 nM. Further, the EC50 in the assay with Mia PaCa2 (MIA PaCa-2) is 144 ± 57 nM; in the assay on Mia PaCa2 (Mia PaCa2, Kras G12D), 144 nM; in the assay on SW780, 1450 nM. Also, the “cells with 4N DNA content” value in [3] (mutant Ras cells (MIA PaCa-2, HCT-116, Umuc3, T24), 48 hours) is on record as “accumulation”. The “accumulation in the G2/M phase of the cell cycle” value in [3] (wild type Ras cell lines (SW780, BxPc3, J82)) was “do not accumulate”. For the same compound, the “DNA strand breaks and apoptosis” value in the assay with mutant Ras cells is recorded as “increased levels”.
Turning to ZAEG*iYRLeLLKaEAAA-NH2 [α3β-HBSMUT], the “GTP-loading of wild type HRas” value at wild type HRas was “not”. Further, the “GTP-loading of wild type NRas” value at wild type NRas is on record as “not”. In assay [2], the “effect on cell growth relative to vehicle control” value is “no effect on cell growth”.

The values are drawn from patent US20170066801A1, “ALPHA3BETA HYDROGEN BOND SURROGATE MACROCYCLES AS MODULATORS OF RAS” (NEW YORK UNIVERSITY, priority 2014, published 2017).
